Key:
windgrass = test: Test C pre-/postemergence test; assay type: in vivo, Apera spica-venti; conditions: Postemergence; for Plant response rating, Windgrass: scale 0 to 100, 0 no effect, 100 complete control
Excerpt: Seeds of plant species selected from blackgrass (Alopecurus myosuroides), downy brome (Bromus tectorum), green foxtail (Setaria viridis), Italian ryegrass (Lolium multiflorum), wheat (Triticum aestivum), wild oat (Avena fatua), catchweed bedstraw (Galium aparine), Russian thistle (Salsola kali), […] (Cynodon dactylon), Surinam grass (Brachiaria decumbens), cocklebur (Xanthium strumarium), corn (Zea mays), crabgrass (Digitaria sanguinalis), woolly cupgrass (Eriochloa villosa), giant foxtail (Setaria faberii), Goosegrass (Eleusin indica), johnsongrass (Sorghum halepense), kochia (Kochia scoparia), lambsquarters (Chenopodium album), morningglory (Ipomoea coccinea), eastern black nightshade (Solanum ptycanthum), yellow nutsedge (Cyperus esculentus), pigweed (Amaranthus retroflexus), common ragweed (Ambrosia elation), soybean (Glycine max), common (oilseed) sunflower (Helianthus annuus), and velvetleaf (Abutilon theophrasti) were planted and treated preemergence with test chemicals formulated in a non-phytotoxic solvent mixture which included a surfactant. At the same time, plants selected from these crop and weed species and also winter barley (Hordeum vulgare), canarygrass (Phalaris minor), and chickweed (Stellaria media) were treated with postemergence applications of some of the test chemicals formulated in the same manner. Plants ranged in height from 2 to 18 cm (1- to 4-leaf stage) for postemergence treatments. […] At time of treatment, test pots were flooded to 3 cm above the soil surface, treated by application of test compounds directly to the paddy water, and then maintained at that water depth for the duration of the test. […] A dash (-) response means no test result.

winter barley = test: Test C postemergence test; assay type: in vivo, Hordeum vulgare; conditions: for Plant response rating, Barley: scale 0 to 100, 0 no effect, 100 complete control
Experimental: (§1) At the same time, plants selected from these crop and weed species and also winter barley (Hordeum vulgare), canarygrass (Phalaris minor), and chickweed (Stellaria media) were treated with postemergence applications of some of the test chemicals formulated in the same manner. Plants ranged in height from 2 to 18 cm (1- to 4-leaf stage) for postemergence treatments. […] At time of treatment, test pots were flooded to 3 cm above the soil surface, treated by application of test compounds directly to the paddy water, and then maintained at that water depth for the duration of the test. Treated plants and controls were maintained in a greenhouse for 13 to 15 days, after which time all species were compared to controls and visually evaluated. […] A dash (-) response means no test result.

chickweed = test: Test C postemergence test; assay type: in vivo, Stellaria media; conditions: for Plant response rating, Chickweed: scale 0 to 100, 0 no effect, 100 complete control
Experimental: as §1

canarygrass = test: Test C postemergence test; assay type: in vivo, Phalaris minor; conditions: for Plant response rating, Canarygrass: scale 0 to 100, 0 no effect, 100 complete control
Experimental: as §1

Virginia dayflower = test: Test F preemergence test; assay type: in vivo, Commelina virginica; conditions: scale 0 to 100
Excerpt: (§2) Seeds of plant species selected from bermudagrass (Cynodon dactylon), Surinam grass (Brachiaria decumbens), large crabgrass (Digitaria sanguinalis), green foxtail (Setaria viridis), goosegrass (Eleusine indica), johnsongrass (Sorghum halepense), kochia (Kochia scoparia), pitted morningglory (Ipomoea lacunosa), purple nutsedge (Cyperus rotundus), common ragweed (Ambrosia elation), mustard (Brassica nigra), guineagrass (Panicum maximum), […] (Paspalum dilatatum), barnyardgrass (Echinochloa crus-galli), southern sandbur (Cenchrus echinatus), common sowthistle (Sonchus oleraceous), prickly […] spinosa), Italian ryegrass (Lolium multiflorum), common purslane (Portulaca oleracea), broadleaf signalgrass (Brachiaria platyphylla), common groundsel (Senecio vulgaris), common chickweed (Stellaria media), Virginia dayflower (Commelina virginica), annual bluegrass (Poa annua), naked crabgrass (Digitaria nuda), […] cochinchinensis), quackgrass (Elytrigia repens), Canada horseweed (Conyza canadensis), field bindweed (Convolvulus arvensis), […] (Bidens bipinnata), common mallow (Malva sylvestris), Russian thistle (Salsola kali), and sugarcane (Saccharum officinarum) were planted and treated preemergence with test chemicals formulated in a non-phytotoxic solvent mixture which included a surfactant. At a different time, sugarcane was treated with postemergence applications of some of the test chemicals formulated in the same manner. Plants were approximately 3- to 4-leaf stage for the postemergence treatments. Treated plants and controls were maintained in a greenhouse for 14 to 21 days, after which time all species were compared to controls and visually evaluated. […] A dash (-) response means no test result.

barnyardgrass = test: Test F preemergence test; assay type: in vivo, Echinochloa crus-galli
Excerpt: as §2

large crabgrass = test: Test F preemergence test; assay type: in vivo, Digitaria sanguinalis; conditions: scale 0 to 100
Excerpt: as §2

[1] = 16 g ai/ha, preemergence, scale 0 to 100 (0 no effect, 100 complete control)
[2] = 62 g ai/ha, Preemergence, scale 0 to 100
[3] = 125 g ai/ha, preemergence, scale 0 to 100
[4] = Preemergence, 31 g ai/ha, scale 0 to 100

| SMILES | Plant response rating (0 to 100), Windgrass (windgrass; 31 g ai/ha) | Plant response rating (0 to 100), Windgrass (windgrass; 62 g ai/ha) | Plant response rating, Windgrass (windgrass; 125 g ai/ha) | Plant response rating, Windgrass (windgrass; 250 g ai/ha) | Plant response rating (0 to 100), Barley (winter barley; 31 g ai/ha) | Plant response rating, Barley (winter barley; 62 g ai/ha) | Plant response rating, Barley (winter barley; 125 g ai/ha) | Plant response rating, Barley (winter barley; 250 g ai/ha) | Plant response rating (0 to 100), Chickweed (chickweed; 31 g ai/ha) | Plant response rating, Chickweed (chickweed; 62 g ai/ha) | Plant response rating, Chickweed (chickweed; 125 g ai/ha) | Plant response rating, Chickweed (chickweed; 250 g ai/ha) | Plant response rating (0 to 100), Canarygrass (canarygrass; 31 g ai/ha) | Plant response rating, Canarygrass (canarygrass; 62 g ai/ha) | Plant response rating, Canarygrass (canarygrass; 125 g ai/ha) | Plant response rating, Canarygrass (canarygrass; 250 g ai/ha) | other results |
| --- | --- | --- | --- | --- | --- | --- | --- | --- | --- | --- | --- | --- | --- | --- | --- | --- | --- |
| CC(c1c(C(F)(F)F)nn(C)c1Cl)S(=O)(=O)c1ccc(Cl)c[n+]1[O-] (racemic) [Compound 40] | 45 | 45 | 85 | 85 | 0 | 0 | 0 | 0 | 0 | 0 | 0 | 0 | 0 | 0 | 0 | 30 |  |
| CCn1nc(C(F)(F)F)c(C[S+]([O-])c2cccc[n+]2[O-])c1OCC(F)(F)F (racemic) [Compound 65] | 50 | 90 | 100 | 100 | 0 | 20 | 40 | 40 | 30 | 40 | 80 | 100 | 0 | 20 | 20 | 25 |  |
| [O-][n+]1cc(Cl)ccc1[S+]([O-])Cc1c(C(F)(F)F)nn(CC(F)(F)F)c1Cl (stereo not drawn) [Compound 47] | 0 | 0 | 95 | 98 | 0 | 0 | 10 | 45 | 0 | 0 | 0 | 0 | 0 | 0 | 0 | 40 |  |
| CCn1nc(C(F)(F)F)c(C(C)S(=O)(=O)c2cccc[n+]2[O-])c1OCC(F)(F)F (stereo not drawn) [Compound 69] | 40 | 95 | 95 | 100 | 0 | 0 | 20 | 25 | 0 | 0 | 0 | 40 | 0 | 0 | 0 | 10 |  |
| Cc1cc([S+]([O-])Cc2c(C(F)(F)F)nn(C)c2OCC(F)(F)F)[n+]([O-])cc1Cl (stereo not drawn) [Compound 70] |  |  |  |  |  |  |  |  |  |  |  |  |  |  |  |  | Plant response rating, Dayflower (Virginia dayflower; 16 g ai/ha, preemergence): 90; Dayflower plant response rating (Virginia dayflower; 62 g ai/ha, Preemergence): 100; Dayflower plant response rating (Virginia dayflower; 125 g ai/ha, preemergence): 100; Plant response rating, Dayflower (Virginia dayflower; Preemergence, 31 g ai/ha): 100; Plant response rating, Barnyardgrass (barnyardgrass; [1]): 60; Barnyardgrass plant response rating (barnyardgrass; [2]): 95; Barnyardgrass plant response rating (barnyardgrass; [3]): 100; Plant response rating, Barnyardgrass (barnyardgrass; [4]): 70; Plant response rating, Crabgrass, Large (large crabgrass; 16 g ai/ha, preemergence): 35; Crabgrass, Large plant response rating (large crabgrass; 62 g ai/ha, Preemergence): 70; Crabgrass, Large plant response rating (large crabgrass; 125 g ai/ha, preemergence): 98; Plant response rating, Crabgrass, Large (large crabgrass; Preemergence, 31 g ai/ha): 50 |
| Cn1nc(C(F)(F)F)c(C[S+]([O-])c2cccc[n+]2[O-])c1OCC(F)(F)C(F)(F)F (stereo not drawn) [Compound 78] | 0 | 0 | 95 | 100 | 0 | 0 | 0 | 0 | 0 | 0 |  |  | 0 | 0 | 0 | 0 |  |
| Cn1nc(C(F)(F)C(F)(F)F)c(C[S+]([O-])c2cccc[n+]2[O-])c1OCC(F)(F)F (stereo not drawn) [Compound 79] | 60 | 100 | 100 | 100 | 0 |  | 0 | 0 | 70 |  | 100 | 100 | 0 |  | 0 | 0 | Dayflower plant response rating (Virginia dayflower; 62 g ai/ha, Preemergence): 50; Dayflower plant response rating (Virginia dayflower; 125 g ai/ha, preemergence): 100; Plant response rating, Dayflower (Virginia dayflower; Preemergence, 31 g ai/ha): 20; Plant response rating (0 to 100), Barley (winter barley; 62 g ai/ha): 0; Plant response rating (0 to 100), Chickweed (chickweed; 62 g ai/ha): 100; Plant response rating, Barnyardgrass (barnyardgrass; [1]): 20; Barnyardgrass plant response rating (barnyardgrass; [2]): 100; Barnyardgrass plant response rating (barnyardgrass; [3]): 100; Plant response rating, Barnyardgrass (barnyardgrass; [4]): 80; Plant response rating (0 to 100), Canarygrass (canarygrass; 62 g ai/ha): 0; Plant response rating, Crabgrass, Large (large crabgrass; 16 g ai/ha, preemergence): 0; Crabgrass, Large plant response rating (large crabgrass; 62 g ai/ha, Preemergence): 80; Crabgrass, Large plant response rating (large crabgrass; 125 g ai/ha, preemergence): 100; Plant response rating, Crabgrass, Large (large crabgrass; Preemergence, 31 g ai/ha): 20 |
